We go through 13 compounds from PubChem BioAssay (NCI).

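Each compound was tested at five concentrations against cells in 96-well plates for 48 hours. GI50 = concentration required for 50% inhibition of growth. TGI is the concentration that stops growth completely.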

Test in all cases: NCI anticancer screen, dose series, 48 h
In assay [1] the test system is KM20L2 colon.
Assay [2] has as its system RPMI-8226 leukemia.
Assay [3] relates to SNB-78 CNS.
For assay [4], the system named is ACHN renal.
Assay [5] deals with SF-268 CNS.
Assay [6] relates to COLO 205 colon.
The test system of assay [7] is OVCAR-8 ovarian.
Assay [8] relates to K-562 leukemia.
Assay [9] relates to HL-60(TB) leukemia.
In assay [10] the test system is T-47D breast.

Turning to `CCCCNC(=O)OCC(COc1ccccc1OC)OC(=O)NCCCC` (stereo unspecified), the TGI in [1], in [2], in [3], in assay [4], in [5] and in assay [6] was > 100 µM each time. For the same compound, the TGI in [7], in assay [8] and in assay [9] was > 100 µM throughout.

For `COc1ccc(OC)c(/C=C/C(=O)C(C)(C)C)c1`, the TGI stood at 50.3 µM in assay [1]; 40.7 µM in assay [2]; 39.7 µM in [4]; 33.3 µM in [6]; 38 µM in [7]; 55.8 µM in assay [8]. The compound further displayed a TGI in assay [9] of 38.7 µM.

Take `O=c1c2cc(Br)ccc2nc(-c2ccccc2)n1NCC1(O)OCC(O)C(O)C1O` (stereo unspecified): the TGI in [1], in assay [2], in assay [3], in assay [4], in [5] and in assay [6] was > 100 µM throughout. The TGI in assay [7], in assay [8] and in [9] was > 100 µM in each case.

Consider `CSc1c(S(C)=O)[nH]c2cc(Br)cc(Br)c12` (stereo unspecified), for which the TGI in [2] worked out at 57.7 µM; in assay [3] it was 57 µM; in assay [4] it was 88.2 µM; in assay [6], 33.1 µM; in assay [7], 61.8 µM; in assay [8], 72.3 µM. Also, the TGI in assay [9] was found to be 52.3 µM.

On to `Cc1cc2c(=O)cc(-c3ccc(C(F)(F)F)cc3)oc2c(C(=O)O)c1C`, for which the TGI in assay [1], in [2], in assay [3], in [4], in assay [5] and in assay [6] was > 100 µM in each case. Moreover, the TGI in assay [7] and in assay [8] was > 100 µM in each case.

As for `CC(C)[C@H]1CO[C@@H]2O[C@H](C)CC(=O)N21`, the TGI in [1], in assay [2], in assay [4], in assay [5], in assay [6] and in [7] was > 100 µM throughout. In addition, the TGI in assay [8] and in assay [9] was > 100 µM each time.

On to `C=CC(=O)NCCOc1cccc(Nc2cc(NCCCNC(=O)C3CCC3)c(Br)cn2)c1`, for which the GI50 is 1.66 µM in assay [2]; 0.75 µM in assay [4]; 0.482 µM in [5]; 0.632 µM in assay [6]; 1.82 µM in [7]; 1.16 µM in assay [8]. Moreover, the GI50 in assay [9] is 0.989 µM; in assay [10], 4.49 µM. In addition, the TGI in assay [2] was > 25 µM; in assay [4] it was > 25 µM; in assay [5] it was 3.73 µM; in [6] it was 2.1 µM; in assay [7], > 25 µM; in assay [8], > 25 µM. Also, the TGI in [9] is > 25 µM; in assay [10], 22.7 µM.

Turning to `O=[N+]([O-])c1cccc(/C=C/c2ccccn2)c1`, the GI50 in assay [2] is 40.2 µM; in [4], 5.81 µM; in [5], 24.7 µM; in [6], 24.3 µM; in assay [7] it was 45 µM; in [8], 41.2 µM. Further, the GI50 was 49.9 µM in assay [9] and 1.82 µM in [10]. The TGI in assay [2] is > 100 µM; in [4], > 100 µM; in assay [5], > 100 µM; in assay [6], 95.5 µM; in assay [7], > 100 µM; in assay [8], > 100 µM. Moreover, the TGI in assay [9] and in assay [10] was > 100 µM throughout.

In the case of `CNS(=O)(=O)c1ccccc1C(=N)c1ccccc1`, the TGI in assay [2], in assay [4], in assay [5], in [6], in assay [7] and in [8] was > 100 µM throughout. Also, the TGI in assay [9] and in assay [10] was > 100 µM in each case.

Turning to `Clc1ccccc1-c1nc(-c2ccncc2)no1`, the TGI in assay [2], in [4], in assay [5], in assay [6], in assay [7] and in [8] was > 100 µM in each case. Also, the TGI was 29.2 µM in [9] and > 100 µM in [10].

In the case of `NC(=S)N/N=C1\C(=O)N(CCc2ccccc2)C(=O)C1C(=O)NCCc1ccccc1` (stereo unspecified), the TGI in assay [1], in assay [2], in assay [3], in assay [4], in [5] and in assay [6] was > 100 µM throughout. Also, the TGI in assay [7] and in assay [8] was > 100 µM in each case.

As for `COc1cc(/C=C/C(=O)NC[C@]2(O)CCC3C4CCc5cc(O)ccc5C4CCC32C)ccc1O` (stereo partly specified), the GI50 in assay [2] is 3.16 µM; in assay [4] it was 9.05 µM; in assay [5] it was 96.1 µM; in assay [6] it was 13.4 µM; in assay [7], 23.8 µM; in assay [8] it was 3.74 µM. In addition, the GI50 in assay [9] was 3.34 µM; in assay [10], 6.53 µM. Besides, the TGI in [2] is 16.7 µM; in [4], > 100 µM; in assay [5], > 100 µM; in assay [6] it was 64.5 µM; in [7], > 100 µM; in [8] it was 28.4 µM. Besides, the TGI in assay [9] is 90.7 µM; in assay [10] it was > 100 µM.

Turning to `Cc1cc(C(=O)N[C@@H](CCC(=O)O)C(=O)O)sc1CC[C@@H]1CNc2nc(N)[nH]c(=O)c2C1`, the GI50 in [2] was 0.0648 µM; in [4] it was < 0.01 µM; in [5], 0.0372 µM; in assay [6] it was 0.0309 µM; in assay [7] it was < 0.0172 µM; in [8], < 0.01 µM. Besides, the GI50 is < 0.0124 µM in assay [9] and 0.0825 µM in assay [10]. The TGI in assay [2] is > 100 µM; in [4] it was > 100 µM; in assay [5] it was > 100 µM; in assay [6], > 100 µM; in [7] it was > 90.6 µM; in [8] it was > 100 µM. Also, the TGI in assay [9] and in assay [10] was > 100 µM throughout.
